Data on 5 molecules can be found in patent US20040152641A1, “Use of polymethoxylated flavones for treating insulin resistance” (priority 2001, published 2004).

Molecules are shown by their SMILES. In brackets after ≈: the same amount, converted by molar mass.

The test system of series [1] is human liver cell line HepG2. As to conditions: cited from earlier work.
Series [2] relates to hamsters with casein-induced hypercholesterolemia. As to conditions: 0.13-1.0% supplementation; cited from earlier work.
Series [3] relates to hamsters made insulin resistant by feeding 60% fructose diet. The series can be described thus: Hamsters made insulin resistant by 60% fructose diet, tangeretin supplementation, 2 weeks. To be noted: for HDL cholesterol / Insulin / NEFA / NO2/NO3 / Triacylglycerols / VLDL + LDL cholesterol / Total cholesterol: serum, mean ± SD.
Method: Diets were pair-fed to control for 2 weeks. After that time, fasting blood samples were collected by heart puncture for measurement of plasma lipids, glucose, NEFA, insulin and nitrites/nitrates (end products of nitric oxide metabolism). Total cholesterol in whole serum and in HDL fraction as well as total triglycerides and glucose were measured by enzymatic timed-endpoint methods, using the Beckman Coulter reagents and SYNCHRON™ LX System. VLDL+LDL cholesterol concentrations were calculated as a difference between total and HDL cholesterol. NEFA were determined enzymatically by NEFA C kit (Wako Chemicals USA Inc., Richmond, Va.). Serum insulin was measured using Rat Insulin RIA kit from Linco Research Inc. St. Charles, Mo. Serum nitrates/nitrites concentrations were determined using Nitrate/Nitrite Colorimetric Assay kit from Cayman Chemical Co., Ann Arbor, Mich.
The next series concerns HepG2 cells. The series can be described thus: Medium apo B in HepG2 cells made insulin-resistant by long-term insulin incubation. It is filed as cell-based, human. To be noted: insulin plus 25 μg/mL tangeretin, 5 days, Elisa. As to the method:
In the cell culture study, 80-90% confluent HepG2 cells were incubated for 5 days with the following media:
1. Minimum essential medium containing 1% bovine serum albumin (MEM+BSA)
2. The same medium containing […] bovine insulin
All media were changed on day 3 to maintain high concentration of insulin (which undergoes partial degradation after long-term incubation). After 5 days, media and cells were collected. Medium concentrations of apo B were measured by Elisa and expressed as μg per mg cell protein as described previously^8.

The test system of a further series is alpha-glucosidase. As to conditions: cited from earlier work.
The target of series [4] is alpha-glucosidase Type 1 from bakers yeast (Saccharomyces cerevisiae, UniProt P53341). The series can be described thus: In vitro inhibition of alpha-glucosidase. It counts as biochemical. As to conditions: 30 min, 37° C., p-nitrophenyl-alpha-D-glucopyranoside. As to the method: For the assay, alpha-glucosidase Type 1 from bakers yeast was incubated for 30 min, at 37° C., in the presence of substrate (p-nitrophenyl-alpha-D-glucopyranoside) and in the presence vs. absence of citrus flavonoids or coumarins at concentrations ranging from 3 to 200 μg/mL (0.01 to 1.8 mM). The reaction was stopped by addition of 0.2 M Na2CO3 and absorbance was measured at 405 nm. Background absorbance (without enzyme) was subtracted for every flavonoid or coumarins concentration used. The inhibitory activity was expressed as percent control and IC50 values (concentrations of compounds required to inhibit alpha-glucosidase by 50%) were calculated.
alpha-glucosidase Type 1 from bakers yeast, sequence (P53341 whole entry): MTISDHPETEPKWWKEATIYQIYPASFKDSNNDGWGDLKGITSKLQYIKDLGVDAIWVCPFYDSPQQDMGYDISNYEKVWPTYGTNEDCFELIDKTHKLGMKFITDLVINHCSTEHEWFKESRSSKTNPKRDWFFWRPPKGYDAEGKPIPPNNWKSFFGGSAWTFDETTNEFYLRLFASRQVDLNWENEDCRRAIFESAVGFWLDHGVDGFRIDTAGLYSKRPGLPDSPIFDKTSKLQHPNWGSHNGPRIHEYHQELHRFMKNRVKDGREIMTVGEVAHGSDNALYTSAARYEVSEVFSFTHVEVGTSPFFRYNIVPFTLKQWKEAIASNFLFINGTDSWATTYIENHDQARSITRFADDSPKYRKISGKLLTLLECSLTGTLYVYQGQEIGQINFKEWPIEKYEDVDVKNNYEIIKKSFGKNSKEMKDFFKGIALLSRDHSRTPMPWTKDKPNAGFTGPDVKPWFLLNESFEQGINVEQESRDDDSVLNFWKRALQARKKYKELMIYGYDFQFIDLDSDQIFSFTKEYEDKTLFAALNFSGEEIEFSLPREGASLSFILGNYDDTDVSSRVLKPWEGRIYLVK

For the molecule `COc1ccc(-c2cc(=O)c3c(OC)c(OC)c(OC)c(OC)c3o2)cc1` [Tangeretin, 5,6,7,8,4′-pentamethoxyflavone], in series [1], the “production of apolipoprotein B (apo B)” value was “substantially reduced”. The “serum content of triacylglycerols and cholesterol” value in series [2] is “significantly reduced”. Besides, the “growth rate and food consumption between the groups” value in series [3] (0.25-1.0% tangeretin, pair-fed, 2 weeks) is “no significant difference”. Besides, in series [3] (+0.25% Tan vs fructose group), the “% change HDL cholesterol” value was 0%, the “% change Insulin” value is recorded as −13%, the “% change NEFA” value was −23% and the “% change Total cholesterol” value is reported as −5%. In series [3] (+0.25% Tan vs fructose group), the “% change Triacylglycerols” value is −24%. In series [3] (+0.5% Tan vs fructose group), the “% change HDL cholesterol” value was −17%, the “% change Insulin” value is −13%, the “% change NEFA” value is listed as −22% and the “% change Total cholesterol” value is recorded as −22%. Besides, the “% change Triacylglycerols” value in series [3] (+0.5% Tan vs fructose group) is listed as −27%. Further, in series [3] (+1.0% Tan vs fructose group), the “% change HDL cholesterol” value is given as −27%, the “% change Insulin” value is −20%, the “% change NEFA” value is recorded as −18% and the “% change NO2/NO3” value is “+99%”. In series [3] (+1.0% Tan vs fructose group), the “% change Total cholesterol” value is listed as −20% and the “% change Triacylglycerols” value is given as −32%. In series [3] (fructose +0.25% Tan), this molecule returned an HDL cholesterol of 2.55 ± 0.72 mmol/L, an Insulin of 735 ± 315 pmol/L, an NEFA of 1.48 ± 0.36 mEq/L and an NO2/NO3 of 55.2 ± 18.8 µmol/L. Further, in series [3] (fructose +0.25% Tan), the Triacylglycerols is listed as 1.51 ± 0.56 mmol/L and the “VLDL + LDL cholesterol” value is listed as 0.62 ± 0.3 mmol/L. In series [3] (fructose +0.5% Tan), this molecule came in with an HDL cholesterol of 1.93 ± 0.48 mmol/L, an Insulin of 729 ± 239 pmol/L, an NEFA of 1.50 ± 0.33 mEq/L and an NO2/NO3 of 52.0 ± 18.5 µmol/L. Further, in series [3] (fructose +0.5% Tan), the Total cholesterol stood at 2.61 ± 0.43 mmol/L, the Triacylglycerols was 1.45 ± 0.52 mmol/L and the “VLDL + LDL cholesterol” value is listed as 0.68 ± 0.28 mmol/L. For the same molecule, in series [3] (fructose +1.0% Tan), the HDL cholesterol is on record as 1.88 ± 0.26 mmol/L, the Insulin was 675 ± 296 pmol/L, the NEFA stood at 1.58 ± 0.32 mEq/L and the NO2/NO3 worked out at 106.3 ± 27.9 µmol/L. Also, in series [3] (fructose +1.0% Tan), the Total cholesterol was determined as 2.69 ± 0.23 mmol/L, the Triacylglycerols is given as 1.35 ± 0.57 mmol/L and the “VLDL + LDL cholesterol” value amounted to 0.81 ± 0.22 mmol/L. Further, in series [3] (fructose with 1% tangeretin), the Serum nitrate/nitrite concentration result is given as “doubled”. Further, in series [3] (supplementation with tangeretin, fructose diet), the Serum glucose entry is reported as “not altered”. Also, the “medium apo B reduced, compared to insulin alone” value in the series on HepG2 cells worked out at 69%.

In the case of `O=c1cc(-c2ccc(O)cc2)oc2cc(O)cc(O)c12` [apigenin], in the series with alpha-glucosidase, the “inhibition of alpha-glucosidase, previous studies” value (shortened to “inhibition of alpha-glucosidase”) is “inhibition”.

Take `O=c1cc(-c2ccc(O)c(O)c2)oc2cc(O)cc(O)c12` [luteolin]: in the series on alpha-glucosidase, the “inhibition of alpha-glucosidase” value is on record as “inhibition”.

Take `COc1ccc([C@@H]2CC(=O)c3c(O)cc(O[C@@H]4O[C@H](CO[C@@H]5O[C@@H](C)[C@H](O)[C@@H](O)[C@H]5O)[C@@H](O)[C@H](O)[C@H]4O)cc3O2)cc1O` [hesperidin]: the “inhibition of alpha-glucosidase” value in the series with alpha-glucosidase was “lack of alpha-glucosidase inhibition”.

Regarding `COc1ccc(-c2oc3c(OC)c(OC)c(OC)c(OC)c3c(=O)c2OC)cc1OC` [Heptamethoxyflavone], in series [4], the half-maximal inhibitory concentration (IC50) (commonly the concentration that gives 50% inhibition) came out at 500 µM and the IC50 alpha-glucosidase came out at 201.7 µg/mL (≈ 466 µM).
